Here are results for 5 compounds from US12697403B2, “Small molecules for dual function positron emission tomography (PET) and cell suicide switches” (THE TRUSTEES OF THE UNIVERSITY OF PENNSYLVANIA, priority 2017, dated 2026).

For data set [1], the target named is T1, MDA-MB231 cells transduced with DHFR-iCasp9 (Escherichia coli, UniProt P0ABQ4).
T1 sequence (P0ABQ4 1-159): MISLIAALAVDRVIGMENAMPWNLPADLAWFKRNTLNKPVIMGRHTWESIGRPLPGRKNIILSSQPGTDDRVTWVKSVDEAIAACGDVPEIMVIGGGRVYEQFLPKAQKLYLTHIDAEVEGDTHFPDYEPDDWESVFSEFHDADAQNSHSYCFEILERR
T1 sequence (P55211 135-416 partner): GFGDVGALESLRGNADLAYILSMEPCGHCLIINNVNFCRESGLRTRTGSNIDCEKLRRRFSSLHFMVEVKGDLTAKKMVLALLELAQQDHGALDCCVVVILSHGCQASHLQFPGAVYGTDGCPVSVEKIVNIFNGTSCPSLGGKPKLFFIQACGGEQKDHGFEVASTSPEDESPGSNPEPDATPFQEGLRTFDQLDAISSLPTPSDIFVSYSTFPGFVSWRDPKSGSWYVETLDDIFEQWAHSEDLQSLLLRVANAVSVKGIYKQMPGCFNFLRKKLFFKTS
Conditions: for activation of the DHFR-iCasp9 suicide gene: MDA-MB231 cells transduced with DHFR-15-iCasp9 or DHFR-18-iCasp9. Here is the method: (§1) Procedure for DHFR-iCasp9 Cell Kill Assay with Bis-TMP Compounds: • Cell culture • Cell lines (MDA-MB231-luc transduced with DHFR-icasp9 with different linker lengths) were cultured in DMEM (Gibco) with 10% fetal bovine serum (Sigma), 100 U/mL penicillin and 100 ug/mL streptomycin (Invitrogen). • Incubation is done at 37° C. with 5% CO2 • Cell assay • Cells were plated on 96 well black plate, 3×10^4 cells/well. • The next day, cells were treated with varying concentrations of Bis-TMP compounds (Bis-TMP-#). • Cells were incubated for 24 hours and luciferin was added (120 ug/mL), after which bioluminescence was measured using Perkin Elmer Enspire Multi-mode Plate reader. Luminescence Assay with HCT116-L106P-tsLuc Cells Following Treatment with Shield-1 Compounds: • Day 1: Plate 50,000 cells/50 uL/well on 96 well black plate. • Day 2: • Add compounds (FP-Shield-1, control Shield-1 in 50 uL volume). • Incubate for 24 h at 37° C. with CO2. • Day 3: Add luciferin and read immediately.

Data set [2] relates to LID system (F36V-FKBP with degron) fused to CAR in T cells. The conditions noted are these: preclinical studies; cited from earlier work.
In data set [3] the test system is luciferase fused to the FKBP12 L106P destabilizing domain (L106P-tsLuc). Briefly: Luminescence assay with HCT116-L106P-tsLuc cells. The class given is cell-based. The conditions noted are these: HCT116 cells expressing L106P-tsLuc, 3 nM to 10 uM. Here is the method: as §1
The target in a further data set is F36V-FKBP (Homo sapiens, UniProt P62942, F37V). The conditions noted are these: cited from earlier work; for binding to mutant F36V-FKBP relative to the wild-type protein: F36V-FKBP versus wild-type FKBP.
Data set [4] deals with iCasp9 in CAR T cells directed against desmoglein-3. Briefly: Caspase activation / killing of iCasp9 CAR T cells by AP20187. It counts as cell-based. The conditions noted are these: nontransduced cells (NTD) and cells without iC9. The text has this:
(§2) The iCasp9 system has been previously incorporated into CAR T cells directed against desmoglein-3 by others for studying pemphigus. T cells were transduced with two different CARs containing iCasp9 (iC9) and one CAR without iC9. The inducible caspase 9 was activated by treatment with varying concentrations of AP20187, a chemical inducer of dimerization which is an analog of AP1903 (FIG. 9). Of note is that the fraction of dead cells is less than 100% because not all of the cells were transduced. The IC50 of AP20187 is <0.1 nM. Nontransduced cells (NTD) and cells without iC9 were not killed by AP20187.

Data set [5] concerns the target T2, iCasp9 in CAR T cells directed against desmoglein-3 (Homo sapiens, UniProt P55211+P62942, F37V).
T2 construct: expressed in transfected cells; host or cells: T cells
Described as above. The conditions noted are these: T cells transduced with CARs containing iCasp9; read-out: IC50 (fraction of dead cells). The class given is cell-based.
Excerpt: as §2

In a further data set the test system is iCasp9 modified T cells. The conditions noted are these: cited from earlier work.

Regarding `COc1cc(Cc2cnc(N)nc2N)cc(OC)c1OCCCCC(=O)NCCCOCCCNC(=O)CCCCOc1c(OC)cc(Cc2cnc(N)nc2N)cc1OC` [Bis-TMP-21, N,N′-(oxybis(propane-3,1-diyl))bis(5-(4-((2,4-diaminopyrimidin-5-yl)methyl)-2,6-dimethoxyphenoxy)pentanamide)], in data set [1], the “activation of the DHFR-iCasp9 suicide gene” value is reported as “potent activation of the DHFR-iCasp9 suicide gene at low nM concentrations”.

The term IC50 denotes the concentration that inhibits the measured activity by half. As for `CC[C@H](C(=O)N1CCCC[C@H]1C(=O)O[C@H](CCc1ccc(OC)c(OC)c1)c1cccc(OCCN2CCOCC2)c1)c1cc(OC)c(OC)c(OC)c1` [Shield-1], in data set [2], the “IC50 for control of CAR expression” value was “in the nM range”. Besides, in data set [3], the “protein stabilization (luminescence)” value is “equivalent protein stabilization when compared to the literature”. On F36V-FKBP, the “binding to mutant F36V-FKBP relative to the wild-type protein” value was “greater than three orders of magnitude”. Also, at F36V-FKBP (read-out: IC50 for the mutant protein F36V-FKBP), the IC50 is 3.3 nM.

In the case of `COc1cc(Cc2cnc(N)nc2N)cc(OC)c1OCCCCC(=O)NCCCOCCOCCOCCCNC(=O)CCCCOc1c(OC)cc(Cc2cnc(N)nc2N)cc1OC` [Bis-TMP-27, N,N′-(((oxybis(ethane-2,1-diyl))bis(oxy))bis(propane-3,1-diyl))bis(5-(4-((2,4-diaminopyrimidin-5-yl)methyl)-2,6-dimethoxyphenoxy)pentanamide)], the “activation of the DHFR-iCasp9 suicide gene” value in data set [1] is reported as “potent activation of the DHFR-iCasp9 suicide gene at low nM concentrations”. Moreover, in data set [1] (MDA-MB231 cells transduced with DHFR-18-iCasp9, 24 hours), the cells killed is reported as ~ 70%. The concentration for half-maximal inhibition (IC50) in data set [1] (read-out: IC50 of cell killing, MDA-MB231 cells transduced with DHFR-18-iCasp9, 24 hours) is about 5 nM.

For the compound `CC[C@H](C(=O)N1CCCC[C@H]1C(=O)O[C@H](CCc1ccc(OC)c(OC)c1)c1cccc(OCC(=O)NCC(CNC(=O)COc2cccc([C@@H](CCc3ccc(OC)c(OC)c3)OC(=O)[C@@H]3CCCCN3C(=O)[C@@H](CC)c3cc(OC)c(OC)c(OC)c3)c2)CN(C)C)c1)c1cc(OC)c(OC)c(OC)c1` [AP20187], the “killing of control cells” value in data set [4] is listed as “not killed”. Besides, the IC50 in data set [5] was under 0.1 nM.

As for `CC[C@H](C(=O)N1CCCC[C@H]1C(=O)O[C@H](CCc1ccc(OC)c(OC)c1)c1cccc(OCC(=O)NCCNC(=O)COc2cccc([C@@H](CCc3ccc(OC)c(OC)c3)OC(=O)[C@@H]3CCCCN3C(=O)[C@@H](CC)c3cc(OC)c(OC)c(OC)c3)c2)c1)c1cc(OC)c(OC)c(OC)c1` [AP1903], the “binding to mutant F36V-FKBP relative to the wild-type protein” value at F36V-FKBP is “greater than three orders of magnitude”. In the data set on iCasp9 modified T cells (given to humans), the “adverse events in humans” value was “without any reported serious adverse events”. Besides, the “modified T cells eliminated” value in the data set on iCasp9 modified T cells (patients with GVHD, single dose, within 30 min after administration) is “more than 90%”. For the same compound, the graft-versus-host disease outcome in the data set with iCasp9 modified T cells (patients with GVHD, single dose) is “terminated without abrogating immune reconstitution”.
